In general, IC50 refers to the point on the concentration scale where inhibition reaches its midpoint. In general, Ki refers to the equilibrium dissociation constant of an inhibitor or competing ligand from its target.

Consider eight molecules from US9044437B2, “Method for treating alzheimer's disease using pharmacological chaperones to increase the activity of gangliosidases” (Amicus Therapeutics, Inc., priority 2009, dated 2015).

Test [1] concerns sAPPα. The test is described as follows: sAPPα production by fibroblasts treated with NB-DGJ (6E10 immunoblot). The test is classed as cell-based, human. The note with it: Sandhoff fibroblasts, 5 days treatment. As for the experimental part:
The data shown in FIG. 3 was generated as follows. A wild type(healthy) fibroblast cell line (CRL2076; Coriell) and a fibroblast cell line from a Sandhoff patient (GM11707; Coriell) were cultured overnight in DMEM (plus 10% FBS) growth medium, followed by an overnight incubation in serum free media. Secreted proteins were collected by TCA precipitation (12.5%) of the growth media and analyzed by immunoblotting using 6E10 antibody (Covance) to determine the levels of sAPPα. […] To measure levels of secreted Aβ40 in media, fibroblasts (CRL2076 & GM11707) were cultured overnight in DMEM (plus 10% FBS) growth medium (3 wells/sample; 1 ml media/well), followed by an overnight incubation in serum free media. The 3 wells/sample were combined and mixed with 0.3 ml methanol, 30 μl 10% TFA (Trifluoroacetic acid). The samples were pre-concentrated using a Sepak C18 column (Waters) and then used in an ELISA assay (Covance) to determine the levels of Aβ40. To determine the levels of full length APP, fibroblasts (CRL2076 & GM11707) were cultured overnight in DMEM (plus 10% FBS) growth medium. […] Secreted proteins were collected by TCA precipitation (12.5%) of the growth media and analyzed by immunoblotting using 6E10 antibody (Covance) to determine the levels of sAPPα. […]

A further test addresses T1, Neu 3 (Homo sapiens, UniProt Q9UQ49).
T1 sequence (Q9UQ49 1-428): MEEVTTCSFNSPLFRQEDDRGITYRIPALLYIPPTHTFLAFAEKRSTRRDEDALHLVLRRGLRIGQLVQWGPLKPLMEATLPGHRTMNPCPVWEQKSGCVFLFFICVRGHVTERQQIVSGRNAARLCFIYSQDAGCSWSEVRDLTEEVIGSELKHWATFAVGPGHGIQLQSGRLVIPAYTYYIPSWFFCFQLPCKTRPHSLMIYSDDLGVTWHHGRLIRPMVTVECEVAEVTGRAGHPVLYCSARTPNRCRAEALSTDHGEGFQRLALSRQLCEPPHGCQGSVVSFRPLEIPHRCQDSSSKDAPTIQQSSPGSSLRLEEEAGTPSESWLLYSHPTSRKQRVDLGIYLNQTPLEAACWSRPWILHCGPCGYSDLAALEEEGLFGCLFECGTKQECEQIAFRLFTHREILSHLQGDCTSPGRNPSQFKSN
As to conditions: marked *: Values reported in the literature; cited from earlier work.

The target in test [2] is T2, wild-type endogenous neuraminidase 1 (Homo sapiens, UniProt Q99519).
T2 construct: selectively increases wild-type endogenous neuraminidase-1 levels in fibroblasts; endogenous in cells; host or cells: healthy control fibroblasts
The test is described as follows: Neuraminidase 1 levels in fibroblasts derived from healthy individuals. The note with it: 5 days. The format is cell-based. As for the experimental part:
The data shown in FIG. 7 was generated as follows. Healthy control fibroblasts were treated for 5 days either with NB-DANA or IFG. The cells were scraped, harvested by centrifugation, and the cell pellet was solubilized using RIPA buffer (1% TX100, 0.5% Taurodeoxycholate, and 0.1% SDS in TBS plus protease inhibitors). The cell lysate was immunoblotted using a polyclonal antibody specific for Neu1 (Novus).
(A) The pharmacological chaperone NB-DANA increased wild-type endogenous neuraminidase 1 levels by up to 2 fold. […] Fibroblasts derived from healthy individuals were treated with NB-DANA or IFG for 5 days and enzyme activity was measured in cell lysates using the substrate NANA-4-MU. Enzyme activity was expressed as nmol of 4-MU generated per mg protein per hour.

A further test concerns the target T3, Neu 4 (Homo sapiens, UniProt Q8WWR8).
T3 sequence (Q8WWR8 1-484): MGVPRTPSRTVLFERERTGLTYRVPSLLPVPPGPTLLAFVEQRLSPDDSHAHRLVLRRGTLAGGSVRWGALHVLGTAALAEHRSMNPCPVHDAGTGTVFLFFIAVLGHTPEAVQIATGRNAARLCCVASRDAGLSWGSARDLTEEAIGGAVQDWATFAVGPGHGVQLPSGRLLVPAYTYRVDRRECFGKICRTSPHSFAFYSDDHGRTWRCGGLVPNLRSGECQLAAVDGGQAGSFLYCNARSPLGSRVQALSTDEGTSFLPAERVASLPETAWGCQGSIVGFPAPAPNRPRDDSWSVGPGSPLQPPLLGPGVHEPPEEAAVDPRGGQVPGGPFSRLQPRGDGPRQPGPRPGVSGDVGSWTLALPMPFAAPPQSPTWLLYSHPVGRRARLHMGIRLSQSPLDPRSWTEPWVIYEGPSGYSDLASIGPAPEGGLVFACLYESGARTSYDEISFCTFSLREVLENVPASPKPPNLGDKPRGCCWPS
As to conditions: marked *: Values reported in the literature; cited from earlier work.

For another test, the target named is Neu 2 (Homo sapiens, UniProt Q9Y3R4). As to conditions: marked *: Values reported in the literature; cited from earlier work.
Test [3] addresses T4, Neu 1 (Homo sapiens, UniProt Q99519). The test is described as follows: Comparative selectivity: Neu 1 inhibition. The format is biochemical.
In test [4] the target is T4, Neu 1. As to conditions: marked *: Values reported in the literature; cited from earlier work.
In the next test the target is T5, wild-type β-Hex (Mus musculus, UniProt P20060).
T5 construct: increase in endogenous wild-type β-hexosaminidase levels and sAPPα shedding in N2A mouse neuroblastomas; endogenous in cells; host or cells: N2A mouse neuroblastoma cells
T5 sequence (P20060 32-536): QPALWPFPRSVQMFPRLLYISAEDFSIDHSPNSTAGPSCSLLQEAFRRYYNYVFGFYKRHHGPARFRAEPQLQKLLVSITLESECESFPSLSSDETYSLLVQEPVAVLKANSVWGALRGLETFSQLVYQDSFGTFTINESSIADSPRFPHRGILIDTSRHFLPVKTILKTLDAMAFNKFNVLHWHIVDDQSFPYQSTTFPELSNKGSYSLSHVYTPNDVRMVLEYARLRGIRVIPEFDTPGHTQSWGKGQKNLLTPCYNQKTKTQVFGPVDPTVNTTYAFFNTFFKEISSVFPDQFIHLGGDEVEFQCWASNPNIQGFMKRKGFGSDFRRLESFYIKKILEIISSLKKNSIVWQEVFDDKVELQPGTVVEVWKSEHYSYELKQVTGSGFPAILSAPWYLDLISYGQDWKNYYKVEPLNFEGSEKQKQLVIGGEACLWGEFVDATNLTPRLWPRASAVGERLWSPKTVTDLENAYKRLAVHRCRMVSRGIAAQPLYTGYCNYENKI
Description: Cellular β-Hex levels in N2A mouse neuroblastomas (HexB immunoblot). The test is classed as cell-based. As to conditions: 10 μM, 3 days. The protocol:
(§1) The data shown in FIG. 4 was generated as follows. N2A mouse neuroblastomas were treated for 3 days either with no compound or with 10 μM AdDNJ, 10 μM NGT or 10 μM DGJ. The cells were scraped, harvested by centrifugation, and the cell pellet was solubilized using RIPA buffer (1% TX100, 0.5% Taurodeoxycholate, and 0.1% SDS in TBS plus protease inhibitors). The cell lysate was immunoblotted using a rabbit polyclonal antibody specific for HexB (Abcam). The levels of sAPPα were determined by immunoblotting a small fraction (30 μl) of the growth media using 22C11 antibody (Millipore).
(§2) FIG. 4A) Treatment of N2A mouse neuroblastomas with 10 μM NGT and AdDNJ increased cellular levels of wild-type β-Hex while deoxygalactonojirimycin (DGJ), a pharmacological chaperone for the lysosomal enzyme acid α-galactosidase, had no effect on β-Hex levels.

The test system of test [5] is sAPPα. The test is described as follows: sAPPα shedding by N2A mouse neuroblastomas (22C11 immunoblot of media). The test is classed as cell-based. As to conditions: 10 μM, 3 days. The protocol:
as §1, §2

The target of test [6] is B-Hex (β-hexosaminidase, Hex A/B). Description: Comparative selectivity of pharmacological chaperones: B-Hex inhibition. The format is biochemical. As to conditions: marked **: Values reported as Ki's; read-out: IC50 B-Hex, values reported as Ki's.

Like-named read-outs stand apart in the source and are kept apart here.

Chain of Neu 2 (Q9Y3R4 whole entry): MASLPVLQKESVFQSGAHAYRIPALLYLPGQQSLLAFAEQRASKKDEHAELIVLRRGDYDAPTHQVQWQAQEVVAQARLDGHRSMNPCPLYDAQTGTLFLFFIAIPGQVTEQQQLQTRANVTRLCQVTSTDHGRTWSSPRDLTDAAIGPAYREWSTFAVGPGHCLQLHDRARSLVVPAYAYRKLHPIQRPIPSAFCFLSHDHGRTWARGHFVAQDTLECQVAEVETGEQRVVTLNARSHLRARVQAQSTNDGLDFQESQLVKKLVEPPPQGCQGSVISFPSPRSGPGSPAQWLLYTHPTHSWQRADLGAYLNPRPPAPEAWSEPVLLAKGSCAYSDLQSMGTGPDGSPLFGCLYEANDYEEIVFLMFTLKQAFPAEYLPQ

Take `CCCCN1C[C@H](O)[C@@H](O)[C@@H](O)[C@H]1CO` [N-butyl-deoxygalactonojirimycin]: in the test with sAPPα [1], the “increase in production of sAPPα” value was 35-40%.
Take `CCCCOC(=O)C1=C[C@H](O)[C@@H](NC(C)=O)[C@H]([C@H](O)[C@H](O)CO)O1` [NB-DANA, n-butyl-2-deoxy-2,3-dehydro-N-acetylneuraminic acid]: the IC50 was > 1000 µM on Neu 3, > 1000 µM on Neu 4, > 1000 µM at Neu 2 and 10 µM against Neu 1 [3]. Further, the “increase of wild-type endogenous neuraminidase 1 levels” value in test [2] is reported as “up to 2 fold”.
“5-(acetylamino)-4-[(aminoiminomethyl)-amino]-2,6-anhydro-3,4,5-trideoxy-D-glycero-D-galacto-non-2-enonic acid [Zanamivir]”: the IC50 at Neu 1 [4] is 2710 µM.
Consider `OC[C@H]1CNC[C@@H](O)[C@@H]1O` [IFG, isofagomine, reference compound], for which the “effect on wild-type neuraminidase 1 levels” value in [2] is “does not increase”.
With `CC(=O)N[C@H]1[C@H]([C@H](O)[C@H](O)CO)OC(C(=O)O)=C[C@@H]1O` [DANA, 2-deoxy-2,3-dehydro-N-acetylneuraminic acid], the IC50 at Neu 3 is 61 µM.
For `OC[C@H]1NC[C@H](O)[C@@H](O)[C@H]1O` [DGJ, deoxygalactonojirimycin, reference compound], the “cellular levels of wild-type β-Hex” value on wild-type β-Hex is “no effect”.
In the case of `CC(=O)N[C@H]1CN[C@H](CO)[C@@H](O)[C@@H]1O` [AdDNJ, 2-acetamido-1,2-dideoxynojirimycin], in the test with sAPPα [5], the “shedding of neurotrophic sAPPα” value is “increased”. For the same molecule, the “cellular levels of wild-type β-Hex” value at wild-type β-Hex is “increased”. The Ki in test [6] stood at 0.7 µM.
For the molecule `CC(=O)N[C@H]1[C@H]([C@H](O)[C@H](O)CO)OC(C(=O)Oc2ccccc2)=C[C@@H]1O` [Phenyl DANA, Phenyl 2-deoxy-2,3-dehydro-N-acetylneuraminic acid, reference compound], the IC50 was 320 µM at Neu 3, 13 µM on Neu 1 [4], 810 µM on Neu 4 and 865 µM on Neu 2.
